The values that follow come from BindingDB's records for PubMed 1874734 (Laboratoires Glaxo, 1991).

pIC50: −log10 of the molar value.

The target of the experiment is cAMP-dependent protein kinase catalytic subunit alpha (Rattus norvegicus, UniProt P27791). In words: PKA assay.

For `CN1CCCC1CCn1cc(C2=C(c3c[nH]c4ccccc34)C(=O)NC2=O)c2ccccc21` (configuration not stated) [3-(1H-indol-3-yl)-4-{1-[2-(1-methylpyrrolidin-2-yl)ethyl]-1H-indol-3-yl}-2,5-dihydro-1H-pyrrole-2,5-dione], the pIC50 (commonly the negative decadic logarithm of the IC50, by convention in mol/L) is 5.70. The value for `CN(C)CCCn1cc(C2=C(c3c[nH]c4ccccc34)CNC2=O)c2ccccc21` [3-[1-(3-dymethylaminopropyl)-indol-3-yl]-4-(indol-3-yl)-3-pyrrolin-2-one] was under 5.00.
